Reference: patent publication EP1635833B1 (priority 2003, dated 2004)
Where two headings read alike, the source gives them in different places.

What was measured:
[1] = test system: ricinus oil-induced diarrhea; assay: whole plant or invertebrate; details: in Meriones unguiculatus, sc, 8 h, read-out: ED50 to postpone the ricinus oil-induced diarrhea
[2] = test system: ricinus oil-induced diarrhea; details: in vivo
[3] = test system: ricinus oil-induced diarrhea; details: rat, in vivo
charcoal propulsion [4] = details: in vivo
[5] = test system: opioid-induced PCO2 increases; details: guinea pig, in vivo
[6] = test system: opioid-induced PCO2 increases; details: in vivo
[7] = test system: opioid-induced PCO2 increases; details: rat, in vivo
[8] = test system: acetone-induced lifting behaviour; assay: Tolerance in a chronic neuropathic pain model (CCI gerbils, acetone spray test); assay type: in vivo; details: 11 days
charcoal propulsion [9] = assay: animal or person; assay type: in vivo, rats; details: Rattus norvegicus, sc, read-out: ED50 for an inhibition of charcoal propulsion (<60 %)
[10] = test system: ricinus oil-induced diarrhea; assay: whole plant or invertebrate; details: in Rattus norvegicus, sc, 4 h, read-out: ED50 to postpone the ricinus oil-induced diarrhea

With COc1ccc2c3c1O[C@H]1[C@@H](O)C=C[C@H]4[C@@H](C2)N(C)CC[C@@]341 [Codeine, codeine] the ED50 [1] was 1.67 mg/kg and the “inhibition of the ricinus oil -induced diarrhea” value (“inhibition of the ricinus oil” below) [2] was “dose-dependent inhibition”.

For COc1ccc2c3c1O[C@H]1C(=O)CC[C@@]4(O)[C@@H](C2)N(C)CC[C@]314 [Oxycodone, oxycodone], the “inhibition of the ricinus oil” value [2] was “dose-dependent inhibition”.

With Cc1cccc(C)c1NC(=O)CN1CCN(C2CCN(C(=O)c3cc(C(F)(F)F)cc(C(F)(F)F)c3)C(Cc3ccccc3)C2)CC1 (single isomer, unassigned; (+)) [Compound 95, (+)-(B)-trans-4-[1-[3,5-bis(trifluoromethyl)benzoyl]-2-(phenylmethyl)-4-piperidinyl]-N-(2,6-dimethylphenyl)-1-piperazine acetamide, (L)-malic acid (1:1)] the “effect of adding Compound 95 on the ED50s of the opioids” value [3] was “did not alter”, the effects on constipation [3] was “minimal effects” and the “effect of adding Compound 95 on the outcome of the opioids” value (charcoal propulsion [4]) was “did not affect the outcome of the opioids”. For the same molecule, the “inhibition of the charcoal propulsion” value (charcoal propulsion [4]) was “inactive”, the PCO2 values [5] was “did not affect PCO2 values” and the “opioid-induced PCO2 levels” value [5] was “reductions in the opioid-induced PCO2 levels”. For the same molecule, the PCO2 values [6] was “no effects were observed”, the “opioid-induced PCO2 levels” value [6] was “significant decreases” and the “number of animals reaching high (>50 mm Hg) levels of PCO2” value [7] was “reduced”. The PCO2 levels ([7]; sc, 40 mg/kg) was “did not affect the PCO2 levels”, the “effect of adding Compound 95 on the ED50s of the opioids” value [2] was “did not alter” and the effects on constipation [2] was “minimal effects”. For the same molecule, the “reduction of the frequency of retches, vomiting and periods of emesis” value (morphine-induced emesis; at 0.4 mg/kg morphine (submaximal dose)) was “non-significant tendency”, the “doses with activity on periods of emesis” value (morphine-induced emesis; at 0.8 mg/kg morphine) was no less than 2.5 mg/kg and the “number (frequency) of vomits” value (morphine-induced emesis; at 0.8 mg/kg morphine, 10 mg/kg Compound 95 i.p.) was “diminished significantly”. For the same molecule, the number of retches (morphine-induced emesis; at 0.8 mg/kg morphine, doses of 10 and 40 mg/kg i.p. Compound 95) was “significantly reduced”, the acetone-induced lifting behaviour ([8]; 2.5 mg/kg Compound 95 i.p. twice daily alone) was “limited activity” and the “acetone-induced lifting behaviour, activity over time” value ([8]; 2.5 mg/kg Compound 95 with 2.5 mg/kg morphine i.p. twice daily) was “the activity remained present over the entire testing period”.

CN1CC[C@]23c4c5ccc(O)c4O[C@H]2[C@@H](O)C=C[C@H]3[C@H]1C5 [Morphine, morphine] was tested, and the “inhibition of the ricinus oil” value [3] was “dose-dependent inhibition”, the ED50 (charcoal propulsion [9]) was 1.66 mg/kg and the PCO2 ([5]; sc) was “increase in PCO2”. For the same molecule, the ED50 [10] was 2.19 mg/kg, the “levels of Pco2” value [7] was “increased levels of Pco2” and the “inhibition of the ricinus oil” value [2] was “dose-dependent inhibition”. The “doses causing central side-effects” value (morphine-induced emesis; in vivo, ip) was greater than 0.8 mg/kg.
